Laboratory results taken from patent publication US12186297B2, “Compositions and methods for increasing lean-to-fat mass ratio” (AXCESS GLOBAL SCIENCES, LLC, priority 2020, dated 2025).

Assay: Expected change in fat mass, muscle mass and lean-to-fat mass ratio in subjects following a training regimen (FIGS. 3, 4A-4C)
Type: in vivo
Conditions: FIG. 4A, set period of time (e.g., 1-3 months)
Excerpt: FIG. 4A illustrates expected change in fat mass over a set period of time (e.g., 1-3 months) for subjects following a training regimen and given different treatments of HMB only (HMB), BHB only (BHB), and a combination of the same amounts of HMB and BHB (HMB+BHB).
FIG. 4B illustrates expected change in muscle mass over a set period of time (e.g., 1-3 months) for subjects following a training regimen and given different treatments of HMB only (HMB), BHB only (BHB), and a combination of the same amounts of HMB and BHB (HMB+BHB).

For `CC(C)(O)CC(=O)O` [HMB, beta-hydroxy-beta-methylbutyrate], the “expected change in fat mass” value was “not expected to provide fat loss to any significant degree by itself”.
